In patent publication US9464082B2, “Aryl and arylalkyl substituted pyrazolyl and pyrimidinyl tricyclic enones as antioxidant inflammation modulators” (AbbVie Inc., priority 2014, dated 2016) one finds IC50 data, which are given here for 22 compounds.

Structures are written as SMILES.

This experiment deals with IFNγ-Induced NO Production. Kind of experiment: Nitric Oxide Suppression Assay (Suppression of IFNγ-Induced NO Production). The format is cell-based. Particulars: RAW264.7; RAW 264.7 mouse macrophage cells; 2 hour pre-treatment with compound (3 μM to 0.3 nM, 10 point curve); 20 ng/mL interferon gamma, ~18 hour; Griess detection; n=2-3 in duplicates. In a few lines:
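Mouse RAW 264.7 macrophages pre-treated 2 h at 37 °C with compound (3 μM to 0.3 nM, 10 points; DMSO ≤1%), then stimulated with 20 ng/mL interferon gamma for ~18 h. Supernatant nitrite measured by Griess reaction, absorbance 520–550 nm. IC50 from curve fit of signal normalised to IFNγ alone, mean n=2-3 in duplicate.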
For orientation: Griess reagent forms a coloured azo dye with nitrite.
As a reminder, the IC50 is the concentration at which inhibition is half-maximal. `COc1ccc([C@]23C=C(C#N)C(=O)[C@@H](C)[C@@H]2CCc2c[nH]nc23)cc1` [Example 58, (5aS,6S,9aR)-9a-(4-methoxyphenyl)-6-methyl-7-oxo-4,5,5a,6,7,9a-hexahydro-2H-benzo[g]indazole-8-carbonitrile]: the 50% inhibitory concentration (IC50) was found to be 33.4 nM.

Regarding `COC(=O)c1cccc([C@]23C=C(C#N)C(=O)[C@@H](C)[C@@H]2CCc2cncnc23)c1` [Example 59, methyl 3-[(6aS,7S,10aR)-9-cyano-7-methyl-8-oxo-6,6a,7,8-tetrahydrobenzo[h]quinazolin-10a(5H)-yl]benzoate], the half-inhibitory concentration (IC50) was 6.53 nM.

With `C[C@@H]1C(=O)C(C#N)=C[C@]2(c3cccc(C(=O)O)c3)c3ncncc3CC[C@@H]12` [Example 60, 3-[(6aS,7S,10aR)-9-cyano-7-methyl-8-oxo-6,6a,7,8-tetrahydrobenzo[h]quinazolin-10a(5H)-yl]benzoic acid], the IC50 is > 3000 nM.

Consider `C[C@@H]1C(=O)C(C#N)=C[C@]2(c3cccc(C(N)=O)c3)c3ncncc3CC[C@@H]12` [Example 61, 3-[(6aS,7S,10aR)-9-cyano-7-methyl-8-oxo-6,6a,7,8-tetrahydrobenzo[h]quinazolin-10a(5H)-yl]benzamide], for which the IC50 is 591 nM.

Consider `COC(=O)c1cccc([C@]23C=C(C#N)C(=O)[C@@H](C)[C@@H]2CCc2c[nH]nc23)c1` [Example 62, methyl 3-[(5aS,6S,9aR)-8-cyano-6-methyl-7-oxo-2,4,5,5a,6,7-hexahydro-9aH-benzo[g]indazol-9a-yl]benzoate], for which the IC50 amounted to 39.4 nM.

As for `COC(=O)c1ccc([C@]23C=C(C#N)C(=O)[C@@H](C)[C@@H]2CCc2c[nH]nc23)cc1` [Example 63, methyl 4-[(5aS,6S,9aR)-8-cyano-6-methyl-7-oxo-2,4,5,5a,6,7-hexahydro-9aH-benzo[g]indazol-9a-yl]benzoate], the IC50 is 26.6 nM.

Take `COC(=O)c1ccc([C@]23C=C(C#N)C(=O)[C@@H](C)[C@@H]2CCc2cncnc23)cc1` [Example 64, methyl 4-[(6aS,7S,10aR)-9-cyano-7-methyl-8-oxo-6,6a,7,8-tetrahydrobenzo[h]quinazolin-10a(5H)-yl]benzoate]: the IC50 was found to be 11 nM.

On to `C[C@@H]1C(=O)C(C#N)=C[C@]2(c3ccccc3)c3c(cnn3Cc3ccc(Br)cc3)CC[C@@H]12` [Example 65, (5aS,6S,9aR)-1-(4-bromobenzyl)-6-methyl-7-oxo-9a-phenyl-4,5,5a,6,7,9a-hexahydro-1H-benzo[g]indazole-8-carbonitrile], for which the IC50 worked out at 109 nM.

As to `C[C@@H]1C(=O)C(C#N)=C[C@]2(c3ccc(C(=O)O)cc3)c3ncncc3CC[C@@H]12` [Example 66, 4-[(6aS,7S,10aR)-9-cyano-7-methyl-8-oxo-6,6a,7,8-tetrahydrobenzo[h]quinazolin-10a(5H)-yl]benzoic acid], the IC50 came out at 809 nM.

As to `COc1ccc([C@]23C=C(C#N)C(=O)[C@@H](C)[C@@H]2CCc2c(-c4cncnc4)nc(C)nc23)cc1` [Example 67, (6aS,7S,10aR)-10a-(4-methoxyphenyl)-2,7-dimethyl-8-oxo-4-(pyrimidin-5-yl)-5,6,6a,7,8,10a-hexahydrobenzo[h]quinazoline-9-carbonitrile], the IC50 was 21.8 nM.

`Cc1nc(-c2cncnc2)c2c(n1)[C@@]1(c3ccc(F)cc3)C=C(C#N)C(=O)[C@@H](C)[C@@H]1CC2` [Example 68, (6aS,7S,10aR)-10a-(4-fluorophenyl)-2,7-dimethyl-8-oxo-4-(pyrimidin-5-yl)-5,6,6a,7,8,10a-hexahydrobenzo[h]quinazoline-9-carbonitrile]: the IC50 stood at 33.6 nM.

For the compound `Cc1nc(-c2cncnc2)c2c(n1)[C@@]1(c3cccc(F)c3)C=C(C#N)C(=O)[C@@H](C)[C@@H]1CC2` [Example 69, (6aS,7S,10aR)-10a-(3-fluorophenyl)-2,7-dimethyl-8-oxo-4-(pyrimidin-5-yl)-5,6,6a,7,8,10a-hexahydrobenzo[h]quinazoline-9-carbonitrile], the IC50 is 35.8 nM.

`COc1ccc([C@]23C=C(C#N)C(=O)[C@@H](C)[C@@H]2CCc2cncnc23)cc1` [Example 70, (6aS,7S,10aR)-10a-(4-methoxyphenyl)-7-methyl-8-oxo-5,6,6a,7,8,10a-hexahydrobenzo[h]quinazoline-9-carbonitrile]: the IC50 is 5.27 nM.

Regarding `C[C@@H]1C(=O)C(C#N)=C[C@]2(c3cccc(C(=O)O)c3)c3n[nH]cc3CC[C@@H]12` [Example 71, 3-[(5aS,6S,9aR)-8-cyano-6-methyl-7-oxo-2,4,5,5a,6,7-hexahydro-9aH-benzo[g]indazol-9a-yl]benzoic acid], the 50% inhibitory concentration (IC50) came out at 1470 nM.

`C[C@@H]1C(=O)C(C#N)=C[C@]2(c3ccc(O)cc3)c3n[nH]cc3CCC12` (stereo partly drawn) [Example 72, (6S,9aR)-9a-(4-hydroxyphenyl)-6-methyl-7-oxo-4,5,5a,6,7,9a-hexahydro-2H-benzo[g]indazole-8-carbonitrile]: the IC50 came to 37.9 nM.

Take `C[C@@H]1C(=O)C(C#N)=C[C@]2(c3ccc(C(=O)N4CCCC4)cc3)c3ncncc3CC[C@@H]12` [Example 73, (6aS,7S,10aR)-7-methyl-8-oxo-10a-[4-(pyrrolidin-1-ylcarbonyl)phenyl]-5,6,6a,7,8,10a-hexahydrobenzo[h]quinazoline-9-carbonitrile]: the half-inhibitory concentration (IC50) turned out to be 152 nM.

Consider `C[C@@H]1C(=O)C(C#N)=C[C@]2(c3ccccc3)c3nc(-c4c(F)cccc4F)ncc3CC[C@@H]12` [Example 74, (6aS,7S,10aR)-2-(2,6-difluorophenyl)-7-methyl-8-oxo-10a-phenyl-5,6,6a,7,8,10a-hexahydrobenzo[h]quinazoline-9-carbonitrile], for which the IC50 turned out to be 9.26 nM.

Regarding `COC(=O)c1ccc(-c2ncc3c(n2)[C@@]2(c4ccccc4)C=C(C#N)C(=O)[C@@H](C)[C@@H]2CC3)cc1` [Example 75, methyl 4-[(6aS,7S,10aR)-9-cyano-7-methyl-8-oxo-10a-phenyl-5,6,6a,7,8,10a-hexahydrobenzo[h]quinazolin-2-yl]benzoate], the 50% inhibitory concentration (IC50) came to 12.7 nM.

Regarding `CC(=O)n1cc(-c2nc(C)nc3c2CC[C@H]2[C@H](C)C(=O)C(C#N)=C[C@]32c2ccccc2)cn1` [Example 76, (6aS,7S,10aR)-4-(1-acetyl-1H-pyrazol-4-yl)-2,7-dimethyl-8-oxo-10a-phenyl-5,6,6a,7,8,10a-hexahydrobenzo[h]quinazoline-9-carbonitrile], the IC50 amounted to 1.91 nM.

For `C[C@@H]1C(=O)C(C#N)=C[C@]2(c3ccccc3)c3nc(-c4ccc(C(=O)O)cc4)ncc3CC[C@@H]12` [Example 77, 4-[(6aS,7S,10aR)-9-cyano-7-methyl-8-oxo-10a-phenyl-5,6,6a,7,8,10a-hexahydrobenzo[h]quinazolin-2-yl]benzoic acid], the IC50 was 15.4 nM.

In the case of `C[C@@H]1C(=O)C(C#N)=C[C@]2(c3cccc(F)c3)c3n[nH]c(-c4cccc(CCCO)c4)c3CCC12` (stereo partly drawn) [Example 78, (6S,9aR)-9a-(3-fluorophenyl)-3-[3-(3-hydroxypropyl)phenyl]-6-methyl-7-oxo-4,5,5a,6,7,9a-hexahydro-2H-benzo[g]indazole-8-carbonitrile], the IC50 was 21.8 nM.

For `COc1ccc([C@]23C=C(C#N)C(=O)[C@@H](C)[C@@H]2CCc2c(-c4ccc(-c5[nH]ncc5Br)cc4)nc(C)nc23)cc1` [Example 79, (6aS,7S,10aR)-4-[4-(4-bromo-1H-pyrazol-5-yl)phenyl]-10a-(4-methoxyphenyl)-2,7-dimethyl-8-oxo-5,6,6a,7,8,10a-hexahydrobenzo[h]quinazoline-9-carbonitrile], the IC50 was found to be 45.7 nM.
